± gives the expanded uncertainty stated by the source.
Assay: activity coefficient (dimensionless); of the first substance listed, at infinite dilution; xn = mol fraction of the nth substance listed
Details: 101 kPa, Liquid, Chromatography, x1 = 0

| SMILES | activity coefficient (308.15 K) | activity coefficient (318.15 K) | activity coefficient (328.15 K) | activity coefficient (338.15 K) | activity coefficient (348.15 K) | activity coefficient (358.15 K) |
| --- | --- | --- | --- | --- | --- | --- |
| CCCO [propan-1-ol] + CCCCCC[N+]1(C)CCCCC1.O=S(=O)([N-]S(=O)(=O)C(F)(F)F)C(F)(F)F | 2.05 ± 0.14 | 1.83 ± 0.12 | 1.67 ± 0.11 | 1.53 ± 0.1 | 1.43 ± 0.09 | 1.33 ± 0.09 |
| C1CCCCCC1 [cycloheptane] + CCCCC[N+]1(C)CCCCC1.O=S(=O)([N-]S(=O)(=O)C(F)(F)F)C(F)(F)F | 7.97 ± 0.54 | 7.49 ± 0.51 | 7.13 ± 0.49 | 6.82 ± 0.46 | 6.54 ± 0.45 | 6.26 ± 0.43 |
| C#CCCCC [1-hexyne] + CCCCCC[N+]1(C)CCCCC1.O=S(=O)([N-]S(=O)(=O)C(F)(F)F)C(F)(F)F | 1.85 ± 0.12 | 1.88 ± 0.13 | 1.92 ± 0.13 | 1.93 ± 0.13 | 1.96 ± 0.13 | 1.98 ± 0.13 |
| CC1CCCCC1 [methylcyclohexane] + CCCCC[N+]1(C)CCCCC1.O=S(=O)([N-]S(=O)(=O)C(F)(F)F)C(F)(F)F | 7.8 ± 0.53 | 7.49 ± 0.51 | 7.16 ± 0.49 | 6.87 ± 0.47 | 6.64 ± 0.45 | 6.42 ± 0.44 |
| c1ccsc1 [thiophene] + CCCCC[N+]1(C)CCCCC1.O=S(=O)([N-]S(=O)(=O)C(F)(F)F)C(F)(F)F | 0.646 ± 0.044 | 0.665 ± 0.045 | 0.673 ± 0.046 | 0.69 ± 0.046 | 0.708 ± 0.047 | 0.722 ± 0.048 |
| C1CCCCC1 [cyclohexane] + CCCCCC[N+]1(C)CCCCC1.O=S(=O)([N-]S(=O)(=O)C(F)(F)F)C(F)(F)F | 4.99 ± 0.34 | 4.8 ± 0.33 | 4.6 ± 0.31 | 4.43 ± 0.3 | 4.28 ± 0.29 | 4.06 ± 0.28 |
| CCC(C)(C)OC [2-methoxy-2-methylbutane] + CCCCC[N+]1(C)CCCCC1.O=S(=O)([N-]S(=O)(=O)C(F)(F)F)C(F)(F)F | 2.44 ± 0.17 | 2.47 ± 0.17 | 2.5 ± 0.17 | 2.53 ± 0.17 | 2.57 ± 0.17 | 2.6 ± 0.18 |
| CCCCCCCCCC [decane] + CCCCCC[N+]1(C)CCCCC1.O=S(=O)([N-]S(=O)(=O)C(F)(F)F)C(F)(F)F | 23.5 ± 1.6 | 22.2 ± 1.5 | 21.1 ± 1.4 | 20 ± 1.4 | 19.1 ± 1.3 | 18.3 ± 1.3 |
| C#CCCCCC [1-heptyne] + CCCCC[N+]1(C)CCCCC1.O=S(=O)([N-]S(=O)(=O)C(F)(F)F)C(F)(F)F | 2.78 ± 0.19 | 2.81 ± 0.19 | 2.84 ± 0.19 | 2.87 ± 0.2 | 2.91 ± 0.2 | 2.94 ± 0.2 |
| C1CCCCCCC1 [cyclooctane] + CCCCC[N+]1(C)CCCCC1.O=S(=O)([N-]S(=O)(=O)C(F)(F)F)C(F)(F)F | 10.1 ± 0.7 | 9.58 ± 0.65 | 9.06 ± 0.62 | 8.6 ± 0.59 | 8.24 ± 0.56 | 7.8 ± 0.53 |
| c1ccccc1 [benzene] + CCCCCC[N+]1(C)CCCCC1.O=S(=O)([N-]S(=O)(=O)C(F)(F)F)C(F)(F)F | 0.669 ± 0.045 | 0.687 ± 0.046 | 0.695 ± 0.047 | 0.71 ± 0.047 | 0.722 ± 0.048 | 0.73 ± 0.048 |
| Cc1ccccc1 [toluene] + CCCCCC[N+]1(C)CCCCC1.O=S(=O)([N-]S(=O)(=O)C(F)(F)F)C(F)(F)F | 0.864 ± 0.055 | 0.894 ± 0.057 | 0.909 ± 0.058 | 0.934 ± 0.059 | 0.957 ± 0.06 | 0.969 ± 0.061 |
| C#CCCCC [1-hexyne] + CCCCC[N+]1(C)CCCCC1.O=S(=O)([N-]S(=O)(=O)C(F)(F)F)C(F)(F)F | 2.09 ± 0.14 | 2.12 ± 0.14 | 2.14 ± 0.15 | 2.18 ± 0.15 | 2.22 ± 0.15 | 2.25 ± 0.15 |
| CCCO [propan-1-ol] + CCCCC[N+]1(C)CCCCC1.O=S(=O)([N-]S(=O)(=O)C(F)(F)F)C(F)(F)F | 2.05 ± 0.14 | 1.82 ± 0.12 | 1.68 ± 0.11 | 1.55 ± 0.1 | 1.46 ± 0.1 | 1.36 ± 0.09 |
| CCc1ccccc1 [ethylbenzene] + CCCCCC[N+]1(C)CCCCC1.O=S(=O)([N-]S(=O)(=O)C(F)(F)F)C(F)(F)F | 0.864 ± 0.055 | 0.894 ± 0.057 | 0.909 ± 0.058 | 0.934 ± 0.059 | 0.957 ± 0.06 | 0.969 ± 0.061 |
| CC(C)=O [acetone] + CCCCC[N+]1(C)CCCCC1.O=S(=O)([N-]S(=O)(=O)C(F)(F)F)C(F)(F)F | 0.398 ± 0.034 | 0.426 ± 0.035 | 0.435 ± 0.035 | 0.441 ± 0.035 | 0.456 ± 0.036 | 0.466 ± 0.036 |
| c1ccsc1 [thiophene] + CCCCCC[N+]1(C)CCCCC1.O=S(=O)([N-]S(=O)(=O)C(F)(F)F)C(F)(F)F | 0.614 ± 0.043 | 0.627 ± 0.043 | 0.643 ± 0.044 | 0.655 ± 0.045 | 0.664 ± 0.045 | 0.675 ± 0.046 |
| CCCCCO [pentan-1-ol] + CCCCC[N+]1(C)CCCCC1.O=S(=O)([N-]S(=O)(=O)C(F)(F)F)C(F)(F)F | 2.5 ± 0.17 | 2.37 ± 0.16 | 2.2 ± 0.15 | 2.03 ± 0.14 | 1.94 ± 0.13 | 1.79 ± 0.12 |

— the NIST ThermoML archive (doi:10.1016/j.jct.2013.01.005)
